Test [1] concerns TNF-α mRNA. The experiment in a line: Real-time PCR of TNF-α mRNA in suture-induced inflamed corneas. The conditions noted are these: vs vehicle. It counts as in vivo, mice. As to the method:
(§1) FIG. 3. Lipoxin Reduces Cytokine mRNA Expressions in Inflamed Corneas. ATLa or vehicle was subconjunctivally injected at 0 h and 48 h after suture placement. For each compound treatment, corneas were harvested from a group of mice at 24 h, and another group at 72 h after suture placement, as well as from normal untreated control corneas (6 corneas per group). mRNA levels of inflammatory cytokines (including IL-1α, IL-1β, and TNF-α) were determined by real-time PCR. Data were normalized to GAPDH mRNA and values were expressed as the fold change over normal control corneas. Results represent the mean (±SEM) of three samples per group (each sample consisted of 2 pooled corneas), and data are representative of two independent experiments (*P<0.05, **P<0.001 vs vehicle-treated group, t-test). […]
(§2) BALB/c mice were randomized to receive ATLa, or vehicle (normal saline) by subconjunctival injection in a masked fashion after suture or hydron pellet placement. […] ATLa was synthesized as described previously.^20 The physical properties were monitored routinely via LC/MS/MS matching the reported biological and physical properties prior to analysis in present experiments. […]
For orientation: Real-time PCR tracks product formation cycle by cycle.

In test [2] the test system is EC. The conditions noted are these: cited from earlier work.
Test [3] concerns IL-1α mRNA. The experiment in a line: Real-time PCR of IL-1α mRNA in suture-induced inflamed corneas. The conditions noted are these: 24 h and 72 h after suture placement; vs vehicle. Type of test: in vivo, mice. As to the method: as §1, §2

Consider `COC(=O)CCC[C@H](O)[C@H](O)/C=C/C=C/C=C\C=C\[C@H](O)COc1ccc(F)cc1` [ATLa, 15-epi-16-(para-fluoro)-phenoxy-lipoxin A4 methyl ester], for which the “increase in TNF-α expression (mRNA)” value is on record as “significantly suppressed” in test [1] (24 h after suture placement) and “not at 72 h” in test [1] (72 h after suture placement). For the same compound, in test [2] (VEGF-A-induced angiogenesis, references 37, 38), the EC adhesion entry is recorded as “inhibition”. Besides, the “VEGF-A-induced EC proliferation” value in test [2] (reference 39) is recorded as “suppression”. In addition, in test [3], the “expression of IL-1α (mRNA)” value is “not significantly altered”.

The values above are taken from patent US20100105772A1, “USE OF NOVEL LIPID MEDIATORS TO INHIBIT ANGIOGENESIS” (priority 2008, published 2010).
